Test results: patent publication US12377127B2, “Treatment for diseases caused by RNA virus SARS-CoV-2” (Amerimmune, LLC, priority 2020, dated 2025)

What was measured:
Caspase 1 [1] = molecular target: T1, Caspase 1 (Homo sapiens, UniProt P29466); test: Active caspase-1 by FAM-FLICA flow cytometry in PBMCs from Emricasan-treated COVID-19(+) whole blood (Example 7); assay type: cell-based; conditions: 1 μM
T1 construct: A Fam-FLICA probe specific for Caspase 1 was directly added to 50 μl PBMC; endogenous in cells; host or cells: PBMC (CD3-, CD3+, CD3+CD4+ lymphocytes) purified from human whole blood
T1 sequence (P29466 120-297 limits assumed): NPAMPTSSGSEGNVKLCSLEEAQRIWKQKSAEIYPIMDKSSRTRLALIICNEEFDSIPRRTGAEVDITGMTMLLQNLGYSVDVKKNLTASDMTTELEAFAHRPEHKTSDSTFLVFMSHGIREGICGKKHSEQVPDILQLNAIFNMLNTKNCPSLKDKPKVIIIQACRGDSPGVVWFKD
T1 sequence (P29466 317-404 limits assumed): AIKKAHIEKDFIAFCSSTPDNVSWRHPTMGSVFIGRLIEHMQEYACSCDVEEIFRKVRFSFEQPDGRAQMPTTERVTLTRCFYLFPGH
Procedure: Whole blood from COVID-19(+) patients was incubated either (A) without addition of Emricasan (Untreated) or (B) with Emricasan (Sigma Aldrich, MO, SML2227-5MG), 1 μM final concentration for 3.5 hours at room temperature (Treated). Following incubation with or without Emricasan, PBMCs were purified using an Accuspin System—Histopaque 1077 (Sigma Aldrich, MO, A6929) as per the manufacturer's instructions. Purified Treated and Untreated PBMCs were incubated with nigericin (Immunochemistry Technologies, MN) as per the manufacturer's instructions for 2 hours. A Fam-FLICA probe specific for Caspase 1 was directly added to 50 μl PBMC and then incubated for 1 hour at 37° C. PMBCs were washed with cell wash buffer (Immunochemistry Technologies, MN) to remove unbound FLICA probes. Washed PBMCs were FACS-sorted using CD45 PE-CY7 [H130], CD3 AF700 [UCHT1], CD4 PE [RPA-T4], CD45RO PerCP-EF710 [UCHL], and Viability Dye 780 (Thermo Fisher Scientific, Carlsbad, CA) to identify viable CD3−cells as well as CD3+ cells and CD3+ CD4+ T cells. Lymphocytes were identified using a standard gating schematic that incorporated gating of lymphocytes on a FSC/SSC plot and singlets on a FSC-A/FSC-H plot. Lymphocytes were further identified as CD45+ on a CD45/SSC plot and subsequent CD3−, CD3+, and CD3+ CD4+ cells were identified on a CD45+ CD3/CD4 plot.
In another experiment, whole blood was incubated with 1 μM Emricasan for 17 hours (overnight between 5 PM to 10 AM) at room temperature on a rocker. The same experiment described above to examine active caspase 1 in PBMCs was performed.

[2] = test system: red blood cell (RBC) layer in the PBMC layer ("red ring"); assay type: cell-based, human; conditions: PBMCs from COVID-19 patient samples, 1 micromolar, room temperature, 17 hours
Caspase 1 [3] = molecular target: T1, Caspase 1; test: Ex vivo stimulation: active caspase-1 in CD4 T (T-helper) cells after whole blood incubation with caspase inhibitors (Example 9); assay type: cell-based; conditions: inhibitor 24 hrs, then with or without nigericin; for T-helper cell caspase-1 expression: COVID-19 whole blood samples
Procedure: Apoptosis and pyroptosis were measured by flow cytometry using fluorescent-labeled inhibitors of caspase probe assay (FLICA; Immunochemistry Technologies, Minneapolis, MN). As a control, PBMCs were stimulated with nigericin for 2 hours. FAM-FLICA probes specific for caspase-1 was added to 50 μl PBMC and incubated for 1h at 37° C. Cells were subsequently washed and stained for CD45 PE-CY7 [HI30], CD3 AF700 [UCHT1], CD4 PE [RPA-T4], CD45RO PerCP-EF710 [UCHL1], and Viability Dye 780 (Thermo Fisher Scientific, Carlsbad, CA). Samples were acquired on a 3 laser BD FACS Canto 10. CS&T beads (BD Bioscience, San Jose, CA) were acquired daily to ensure consistent performance of the Canto10. The CANTO10 utilized for this study was validated for T, B, NK, and dendritic cell immunophenotyping clinical diagnostic testing. Denovo FCS Express v6 clinical edition (De Novo Software, Pasadena, CA) was used for flow cytometric analyses.
Active caspase-1 in COVID-19+ patient samples. Whole blood from a COVID-19 positive patient was either (A) untreated or (B) treated with emricasan (1 μM, Sigma Aldrich, MO, SML2227-5MG) or selective caspase-1 inhibitor VX765 overnight at 37° C. in a water bath. Subsequently, PBMCs were purified (Accuspin System—Histopaque 1077; Sigma Aldrich, MO, A6929) and incubated with nigericin (Immunochemistry Technologies, MN) for 2h. A Fam-FLICA probe specific for active caspase-1 was added to 50 μl PBMC and then incubated for 1h at 37° C. PMBCs were washed with cell wash buffer (Immunochemistry Technologies, MN) and stained with CD45 PE-CY7 [H130], CD3 AF700 [UCHT1], CD4 PE [RPA-T4], CD45RO PerCP-EF710 [UCHL1], and Viability Dye 780 (Thermo Fisher Scientific, Carlsbad, CA). Lymphocytes were identified using a standard gating schematic that incorporated gating of lymphocytes on an FSC/SSC plot and singlets on a FSC-A/FSC-H plot. Lymphocytes were further identified as CD45+ on a CD45/SSC plot and subsequent CD3−, CD3+ and CD3+CD4+ cells were identified on a CD45+ CD3/CD4 plot. Shown are the active caspase-1 MFI and % positive for the three cellular populations indicated. […]

caspase-3 = molecular target: T2, caspase-3 (Homo sapiens, UniProt P42574); test: Caspase-3 in RBCs incubated with patient plasma (Example 9); assay type: cell-based
T2 construct: EMR suppressed the caspase-3 up-regulation in the COVID-19 plasma incubated samples; endogenous in cells; host or cells: human red blood cells (healthy subjects' RBCs incubated with patient plasma)
T2 sequence (P42574 29-277): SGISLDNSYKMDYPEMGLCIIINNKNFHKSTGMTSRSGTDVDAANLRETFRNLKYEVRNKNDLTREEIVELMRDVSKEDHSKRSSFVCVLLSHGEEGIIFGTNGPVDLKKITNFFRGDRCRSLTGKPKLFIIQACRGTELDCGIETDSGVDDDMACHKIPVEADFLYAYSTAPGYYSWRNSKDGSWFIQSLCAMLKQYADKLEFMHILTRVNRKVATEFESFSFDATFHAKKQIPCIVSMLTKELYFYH
Procedure: Plasma was separated from whole blood following centrifugation at 960 RCF. Cells (RBC and WBC) were either incubated at 37° C. alone or in the presence of trypsin for 1 hour then washed with 10 packed cell volumes of RPMI 1640 incomplete medium. Plasma was either held at room temperature (18-25° C.) or heat inactivated at 56° C. for 1 hr. Plasma was added back to the RBC/WBC in a 1:1 ratio and incubated overnight, rocking at room temperature.
Cellular caspases are not limited to immune cells. […] In the process of Ficoll separation, a layer of RBCs contaminating the PBMC layer was observed, which layer was universally present in all samples from COVID-19 individuals (FIG. 6A). This finding was also present in up to 80% of COVID-19 convalescent subjects. Plasma from acutely infected subjects induced a similar finding when incubated overnight with plasma depleted whole blood of healthy patients.

[4] = COVID-19(+) whole blood, 3.5 hours, room temperature, nigericin 2 hours, CD3-, CD3+, CD3+CD4+ cells, vs untreated, p≤0.005

C[C@H](NC(=O)C(=O)Nc1ccccc1C(C)(C)C)C(=O)N[C@@H](CC(=O)O)C(=O)COc1c(F)c(F)cc(F)c1F [Emricasan, (3S)-3-{[(2S)-2-{[2-(2-tert-butylanilino)-2-oxoacetyl]amino}propanoyl]amino}-4-oxo-5-(2,3,5,6-tetrafluorophenoxy)pentanoic acid]
active caspase-1 % positive cells (Caspase 1 [1]; [4]): significant reduction | active caspase-1 MFI (Caspase 1 [1]; [4]): significant reduction | inhibition of nigericin-induced Caspase-1 activity (Caspase 1 [1]; whole blood, 17 hours (overnight), room temperature on a rocker, 3 samples from COVID-19 patients): seen in only ⅓ sample | "red ring" (RBC layer contaminating PBMCs) [2]: decrease | T-helper cell caspase-1 expression (Caspase 1 [3]): suppressed | T-helper cell caspase-1 upregulation (Caspase 1 [3]; healthy subjects' whole blood): prevented its upregulation | RBC caspase-3 up-regulation (caspase-3; healthy subjects' RBCs incubated with COVID-19 plasma): suppressed | RBC caspase-3 baseline expression levels (caspase-3; influenza-plasma incubated samples): did not change

CCO[C@@H]1OC(=O)C[C@@H]1NC(=O)[C@@H]1CCCN1C(=O)[C@@H](NC(=O)c1ccc(N)c(Cl)c1)C(C)(C)C [VX765, Belnacasan]
T-helper cell caspase-1 expression (Caspase 1 [3]): did not show a strong similar suppressive effect
